Laboratory results from ChEMBL document CHEMBL1150439, “Synthesis and evaluation of dual domain macrocyclic FKBP12 ligands” (Bioorg Med Chem Lett, 1994).

Target: Peptidyl-prolyl cis-trans isomerase FKBP1A (Homo sapiens, UniProt P62942)
Assay: Binding affinity towards FK506 binding protein 12 as measured by displacement of a radiolabeled FK506 analogue

Peptidyl-prolyl cis-trans isomerase FKBP1A, sequence (P62942 whole entry): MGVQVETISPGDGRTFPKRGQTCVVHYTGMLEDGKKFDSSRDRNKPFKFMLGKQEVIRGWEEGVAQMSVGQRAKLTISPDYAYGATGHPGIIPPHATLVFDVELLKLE

Compound | Kd [µM]
C=CCC1/C=C(\C)CCOC(=O)OC(=O)CCCCC(=O)C(=O)OC(=O)C(=O)N2CCCC[C@H]2C(=O)O[C@H](CCc2cccnc2)[C@H](C)CCC1=O (some centres not stated) | 4.5
C=CCC1/C=C(\C)CCOC(=O)OC(=O)CCC(=O)C(=O)OC(=O)C(=O)N2CCCC[C@H]2C(=O)O[C@H](CCc2cccnc2)[C@H](C)CCC1=O (some centres not stated) | 5.5
C=CCC1/C=C(\C)CCOC(=O)OC(=O)C2CC[C@@](C)(O2)C(=O)C(=O)C(=O)OC(=O)C(=O)N2CCCC[C@H]2C(=O)O[C@H](CCc2cccnc2)[C@H](C)CCC1=O (some centres not stated) | 8

The next molecules have a lower Kd than those just listed; values first:

Kd [µM] | Compound
4 | C=CCC1/C=C(\C)CCCOC(=O)OC(=O)C2CC[C@@](C)(O2)C(=O)C(=O)C(=O)OC(=O)C(=O)N2CCCC[C@H]2C(=O)O[C@H](CCc2cccnc2)[C@H](C)CCC1=O (some centres not stated)
2 | C=CCC1/C=C(\C)CCOC(=O)OC(=O)CCCC(=O)C(=O)OC(=O)C(=O)N2CCCC[C@H]2C(=O)O[C@H](CCc2cccnc2)[C@H](C)CCC1=O (some centres not stated)
0.4 | C=CCC1/C=C(\C)CCOC(=O)OC(=O)C2CC[C@@H](O2)C(=O)C(=O)C(=O)OC(=O)C(=O)N2CCCC[C@H]2C(=O)O[C@H](CCc2cccnc2)[C@H](C)CCC1=O (some centres not stated)
0.2 | C=CCC1/C=C(\C)CCCOC(=O)OC(=O)C2CC[C@@H](O2)C(=O)C(=O)C(=O)OC(=O)C(=O)N2CCCC[C@H]2C(=O)O[C@H](CCc2cccnc2)[C@H](C)CCC1=O (some centres not stated)
